Assay [1] has as its target T1, human CD38 (Homo sapiens, UniProt P28907).
T1 construct: purchased Bio-Techne GmbH AVI2404
T1 sequence (P28907 1-300): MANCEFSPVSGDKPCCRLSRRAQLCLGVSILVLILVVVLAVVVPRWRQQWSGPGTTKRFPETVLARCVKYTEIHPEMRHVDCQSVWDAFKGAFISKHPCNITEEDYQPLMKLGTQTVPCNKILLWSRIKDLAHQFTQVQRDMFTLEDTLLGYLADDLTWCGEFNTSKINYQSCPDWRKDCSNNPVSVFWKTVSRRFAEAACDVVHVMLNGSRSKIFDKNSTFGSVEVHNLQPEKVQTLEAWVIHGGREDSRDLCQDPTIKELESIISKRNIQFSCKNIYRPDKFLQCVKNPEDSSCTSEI
Nature of the assay: NAD+ cyclase activity assay with human recombinant CD38 protein (ε-NAD fluorescence). The format is biochemical. The following applies: 1.9 nM human CD38, substrate ε-NAD, 30 min preincubation, fluorescence 300/410 nm. In short, it runs like this: (§1)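 Twelve-point threefold compound dilutions were given 30 min at room temperature with 0.6 nM mouse or 1.9 nM human CD38 before […] ε-NAD was added (pH 7.5 HEPES/sucrose/Tween buffer). The rate came from the linear-phase slope of ex 300/em 410 nm fluorescence against vehicle and no-CD38 controls.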

In assay [2] the target is T2, mouse CD38 (Mus musculus, UniProt P56528).
T2 construct: purchased Bio-Techne GmbH 4947-AC
T2 sequence (P56528 1-304): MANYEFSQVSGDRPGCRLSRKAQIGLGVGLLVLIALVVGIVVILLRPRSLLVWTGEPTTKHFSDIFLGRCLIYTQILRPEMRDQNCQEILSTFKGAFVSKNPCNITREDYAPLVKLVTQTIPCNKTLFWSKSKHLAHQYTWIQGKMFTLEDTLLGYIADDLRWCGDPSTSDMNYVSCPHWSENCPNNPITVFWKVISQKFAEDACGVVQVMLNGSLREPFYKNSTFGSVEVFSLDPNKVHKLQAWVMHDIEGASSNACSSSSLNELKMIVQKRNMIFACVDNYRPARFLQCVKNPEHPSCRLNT
Nature of the assay: NAD+ cyclase activity assay with mouse recombinant CD38 protein (ε-NAD fluorescence). The following applies: 0.6 nM mouse CD38, substrate ε-NAD, 30 min preincubation, fluorescence 300/410 nm. The format is biochemical. A digest of the protocol: as §1

SMILES strings stand for the structures.

As a reminder, the IC50 is the midpoint of a concentration-inhibition curve. On to `CC1(C)CC(NC(=O)c2ccc3c(c2)-c2cncn2CCO3)C1` [Compound 141A, N-(3,3-Dimethylcyclobutyl)-5,6-dihydrobenzo[f]imidazo[1,5-d][1,4]oxazepine-10-carboxamide], for which the IC50 in assay [1] was less than 30 nM; in assay [2], 1 to 10 nM.

Consider `CC(C)(O)[C@H]1CC[C@H](NC(=O)c2ccc3c(c2)-c2cncn2CCO3)CC1` [Compound 58A, N-((1r,4r)-4-(2-Hydroxypropan-2-yl)cyclohexyl)-5,6-dihydrobenzo[f]imidazo[1,5-d][1,4]oxazepine-10-carboxamide], for which the IC50 in assay [1] is less than 30 nM; in assay [2] it was less than 1 nM.

Consider `O=C(Nc1cnc2c(c1)OCCO2)c1cc(F)c2c(c1)-c1cncn1CCO2` [Compound 97A, N-(2,3-Dihydro-[1,4]dioxino[2,3-b]pyridin-7-yl)-8-fluoro-5,6-dihydrobenzo[f]imidazo[1,5-d][1,4]oxazepine-10-carboxamide], for which the concentration for half-maximal inhibition (IC50) in assay [1] is less than 30 nM; in assay [2] it was less than 1 nM.

As to `CNc1nc2ccc(C(=O)N[C@@H]3CCCOC3)cc2n2cncc12` [Compound 28A, (R)-4-(Methylamino)-N-(tetrahydro-2H-pyran-3-yl)imidazo[1,5-a]quinoxaline-8-carboxamide], the IC50 in assay [1] is less than 30 nM; in assay [2], 1 to 10 nM.

Regarding `CCC1CCC(NC(=O)c2ccc3c(c2)-c2cncn2CCO3)CC1` (stereo not drawn) [Compound 125A, N-(4-Ethylcyclohexyl)-5,6-dihydrobenzo[f]imidazo[1,5-d][1,4]oxazepine-10-carboxamide], the IC50 is less than 30 nM in assay [1] and 1 to 10 nM in assay [2].

In the case of `CC(C1CCC(NC(=O)c2ccc3c(c2)-c2cncn2CCO3)CC1)C(F)(F)F` (stereo not drawn) [Compound 133A, N-(4-(1,1,1-Trifluoropropan-2-yl)cyclohexyl)-5,6-dihydrobenzo[f]imidazo[1,5-d][1,4]oxazepine-10-carboxamide], the IC50 fell in the range of 30 to 100 nM in assay [1] and 1 to 10 nM in assay [2].

Consider `COCCNc1nc2cc(NC(=O)c3ccc4c(c3)-c3cncn3CCO4)ccc2s1` [Compound 48A, N-(2-((2-Methoxyethyl)amino)benzo[d]thiazol-5-yl)-5,6-dihydrobenzo[f]imidazo[1,5-d][1,4]oxazepine-10-carboxamide], for which the half-maximal inhibitory concentration (IC50) is less than 30 nM in assay [1] and 1 to 10 nM in assay [2].

On to `O=C(Nc1cnc(OCCC(F)(F)F)nc1)c1ccc2c(c1)-c1cncn1CCO2` [Compound 104A, N-(2-(3,3,3-Trifluoropropoxy)pyrimidin-5-yl)-5,6-dihydrobenzo[f]imidazo[1,5-d][1,4]oxazepine-10-carboxamide], for which the values for the IC50 in assay [1] and in assay [2] were less than 30 nM and 1 to 10 nM, respectively.

As for `O=C(N[C@H]1CC[C@H](OCCCF)CC1)c1ccc2c(c1)-c1cncn1CCO2` [Compound 80A, N-((1r,4r)-4-(3-Fluoropropoxy)cyclohexyl)-5,6-dihydrobenzo[f]imidazo[1,5-d][1,4]oxazepine-10-carboxamide], the IC50 in assay [1] is less than 30 nM; in assay [2], 1 to 10 nM.

In the case of `O=C(NC1CCC(CC(F)(F)F)CC1)c1ccc2c(c1)-c1cncn1CCO2` (stereo not drawn) [Compound 119A, N-(4-(2,2,2-Trifluoroethyl)cyclohexyl)-5,6-dihydrobenzo[f]imidazo[1,5-d][1,4]oxazepine-10-carboxamide], the IC50 is less than 30 nM in assay [1] and 1 to 10 nM in assay [2].

As to `Cn1c(=O)c2cncn2c2cc(C(=O)N[C@@H]3CCCOC3)ccc21` [Compound 16A, (R)-5-Methyl-4-oxo-N-(tetrahydro-2H-pyran-3-yl)-4,5-dihydroimidazo[1,5-a]quinoxaline-8-carboxamide], the 50% inhibitory concentration (IC50) in assay [1] is more than 1000 nM; in assay [2], more than 100 nM.

On to `O=C(N[C@H]1CC[C@H](NC2CCC2(F)F)CC1)c1ccc2c(c1)-c1cncn1CCO2` (stereo partly drawn) [Compound 82A, N-((1r,4r)-4-((2,2-Difluorocyclobutyl)amino)cyclohexyl)-5,6-dihydrobenzo[f]imidazo[1,5-d][1,4]oxazepine-10-carboxamide], for which the IC50 in assay [1] is less than 30 nM; in assay [2], 1 to 10 nM.

Values taken from patent US20260138990A1, “TRICYCLIC FUSED IMIDAZOLE COMPOUNDS AS CD38 MODULATORS AND USES THEREOF” (AEOVIAN PHARMACEUTICALS, INC., priority 2023, published 2026).
